Series [1] relates to Thompson Seedless grapevines. Kind of series: Fruit detachment force (FDF), Thompson Seedless experiment. As to conditions: for FDF: ten days after treatment. The format is in vivo, grape. The method, then: (§1) An experiment was conducted in a 40-year-old Thompson Seedless vineyard at the Kearney Agricultural Center in Parlier, California. The site was typical of conventional raisin vineyards, with head-trained, cane-pruned vines on a two-wire T-shaped trellis with a 0.6 m cross arm. The soil was a deep Hanford fine sandy loam.
(§2) The vineyard was divided into plots consisting of vine sections (within-row spaces between two adjacent vine trunks) of uniform appearance and crop load. Each plot was surrounded by guard vines within and between rows. Treatments consisted of 26 different solutions made up of various potential abscission agents (Table 1). Because the concentrations varied widely between agents, each solution was considered a different treatment, and a randomized complete block design was used. All treatments, except for coronatine, were replicated four times. Due to a lack of material, coronatine was only applied to two plots; therefore, data from that treatment were not subjected to statistical analysis though observations were made.
(§3) Composite berry samples were collected weekly to monitor soluble solids accumulation by the fruits. Samples consisted of about 100 berries collected from the top, middle and bottom of about 33 randomly selected clusters. Berries were homogenized in a blender, their juice filtered, and soluble solids measured with a temperature compensating digital refractometer (Palette 101, Atago, Farmingdale, N.Y.). Once the fruits amassed sufficient soluble solids for raisin making (>19 Brix), abscission agents were dissolved or dispersed in water with adjuvant added (0.1%, v/v, Latron B-1956™, Britz, Parlier, Calif.) except MeJA solutions which contained 0.2% adjuvant. Control solutions contained the adjuvant only (0.2% v/v). Immediately after their preparation, solutions were applied to the vines of each plot with a gasoline-powered back-pack sprayer (Solo, Newport News, R.I.) until runoff. Vines within harvest pruned (HP) plots were not treated with any solutions, but their canes were severed on the same day that solutions were applied.
(§4) The soil surface within each plot was covered with ground cloth to collect any berries that might fall from the canopy. […] In those plots and in the control and HP plots, all abscised berries were collected from the ground cloth into paper bags and placed in a forced air oven (60 C) until they reached a constant weight. Clusters of grapes on vines from all the plots were carefully harvested and brought into a laboratory where fruit detachment force (FDF) measurements were made. Any grapes that detached from the vines at harvest were considered to be retained by the vine until harvest. These berries were collected into paper bags and placed in a forced air oven to dry.
(§5) Three representative clusters were selected from all the clusters of each plot and ten rachis sections from the top, middle, and bottom of the three clusters were removed by cutting the rachis with shears. A berry from each section was placed in a jig attached to a force gauge (DPS-11, Imada Inc., Northbrook, Ill.). The rachis was pulled parallel to the fruit axis until it separated from the fruit. The force required to detach each berry from the rachis in grams-force was recorded as the fruit detachment force. The condition of each detached berry was noted, and the berries were placed in paper bags along with all the other berries that were picked from that plot. These berries were also placed in the forced air oven and dried to a constant weight. The proportion of berries that abscised from the vine was calculated on a dry weight basis by dividing the dry weight of the abscised berries in each plot by the combined weight of the retained and abscised berries in that plot. Finally, canopy damage in each plot was inspected visually and assigned a rating of 0 (no obvious foliar damage), 1 (appearance of slight foliar damage), 2 (appearance of moderate foliar damage), or 3 (appearance of severe foliar damage).

In series [2] the test system is Thompson Seedless grapevines. Kind of series: Visual canopy damage rating, Thompson Seedless experiment. The format is in vivo, grape. As to conditions: ten days after treatment.
From the text: as §2
Composite berry samples were collected weekly to monitor soluble solids accumulation by the fruits. Samples consisted of about 100 berries collected from the top, middle and bottom of about 33 randomly selected clusters. […] Control solutions contained the adjuvant only (0.2% v/v). Immediately after their preparation, solutions were applied to the vines of each plot with a gasoline-powered back-pack sprayer (Solo, Newport News, R.I.) until runoff. Vines within harvest pruned (HP) plots were not treated with any solutions, but their canes were severed on the same day that solutions were applied.
as §5

Series [3] relates to citrus trees. As to conditions: cited from earlier work.
Series [4] has as its system Thompson Seedless grapevines. Kind of series: Fruit drop (berry abscission) from treated vines, Thompson Seedless experiment. As to conditions: for Berry abscission observed in plots: ten days after treatment, all 26 solutions compared; for Percent fruit drop (dry wt/dry wt): 10 days after treatment. The format is in vivo, grape. The method, then:
as §1, §2, §3, §4, §5

Series [5] relates to Thompson Seedless grapevines. Kind of series: Bud break and shoot growth six months after treatment, Thompson Seedless experiment. In kind it is in vivo, grape. As to conditions: 2000 ppm, evaluated six months later. As for the experimental part: Each plot was inspected again six months later when bud break and shoot growth were evaluated. To evaluate bud break, plots received one of the following scores; 0=shoots emerged from 0-20% of nodes; 1=shoots emerged from 20-40% of nodes, 2=shoots emerged from 40-60% of nodes, 3=shoots emerged from 60-80% of nodes, or 4=shoots emerged from 80-100% of nodes. Shoot growth in each plot was also evaluated on a five-point scale, based on the proportion of shoots that had progressed to the five-leaf stage (Eichorn-Lorenz stage 12; Eichorn and Lorenz, Phaenologische Entwicklungsstadien der Rebe. Nachrichtenbl. Deut. Pflanzenschutzd. (Braunschweig) 29:119-120 (1977)).

The subject of series [6] is Cabernet Sauvignon grapevines. The series is described as follows: Fruit detachment force and fruit drop, Cabernet Sauvignon. In kind it is in vivo, grape. As to conditions: 4500 ppm, 14 DAT. The method, then:
(§6) An experiment was conducted in a nine-year-old vineyard of own-rooted Cabernet Sauvignon and Merlot grapevines on a vertical two-wire […]. Whole vines were sprayed to runoff on Day 0 with solutions containing 0 or 4500 ppm MeJA and an adjuvant (Latron B-1956; 0.2% v/v) in a completely randomized design replicated four times. On 14 DAT, four representative clusters were collected from each of four vines and ten rachis sections were prepared from each cluster. Fruit detachment force was measured from berries attached to each section, as described previously. Condition of the detached berries was noted, and all the berries from each cluster were counted, weighed, and homogenized in a blender. The juice from each sample was filtered and soluble solids, pH, and titratable acidity of the filtered juices were determined using standard methods. All data were subjected to analysis of variance using the general linear models procedure (PROC GLM) of SAS statistical software (SAS Inst., Cary, N.C.). Duncan's New Multiple Range Test was used to separate treatment means.

The test system of series [7] is Crimson Seedless grapes. Kind of series: Abscission and fruit detachment force, Crimson Seedless experiment. In kind it is in vivo, grape. The method, then:
An experiment was conducted in a fourteen-year-old vineyard of own-rooted Crimson Seedless grapes on an open-gable trellis. Individual clusters of grapes were sprayed to runoff with one of four solutions containing 0, 1125, 2250, or 4500 ppm MeJA and an adjuvant (0.2% v/v, Latron-B 1956). On Day 0, treatments were applied in a randomized, complete block design with clusters as observational units, and vines as blocks. Each spray treatment was applied to 4 replicate clusters. During treatment, clusters were surrounded with plastic shields to protect other clusters from overspray and runoff. The day after treatment, each cluster was enclosed in a plastic mesh bag to collect any berries that might abscise. Clusters were harvested 14 DAT. Ten rachis sections were collected from each cluster and FDF was measured as described previously. The condition of the detached berries was noted, and the berries from each cluster were then separately weighed and homogenized in a blender. Juices were filtered and soluble solids, pH, and titratable acidity of the filtered juices were determined using standard methods.
All data were subjected to analysis of variance using the general linear models procedure (PROC GLM) of SAS statistical software (SAS Inst., Cary, N.C.). Duncan's New Multiple Range Test was used to separate treatment means. […]

Series [8] deals with Merlot grapevines. Kind of series: Fruit detachment force and fruit drop, Merlot. In kind it is in vivo, grape. As to conditions: 4500 ppm, 14 DAT. The method, then: as §6

Values joined by “and” are separate entries in the source; they are usually repeats but may differ in a detail not shown here. Equal values may be shown once.

In the case of `Cc1n[nH]c(Cl)c1[N+](=O)[O-]` [CMNP, 5-chloro-3-methyl-4-nitro-1H-pyrazole], the FDF in series [1] (20 ppm) amounted to 0.244 cd kg; in series [1] (200 ppm) it was 0.156 fg·kg; in series [1] (1000 ppm) it was 0.161 fg·kg; in series [1] (2000 ppm) it was 0.182 ef kg. Moreover, the “Canopy damage (0-3; none-severe)” value is on record as 1.25 cde in series [2] (20 ppm), 1.25 bcd in series [2] (200 ppm), 1.75 bc in series [2] (1000 ppm) and 2.75 a in series [2] (2000 ppm).
As to `CC[C@H]1C=C(C(=O)N[C@@]2(C(=O)O)C[C@@H]2CC)[C@H]2CCC(=O)[C@H]2C1` [Coronatine], the Defoliation expected entry in series [3] (citrus (Burns et al., 2003)) was “chlorosis. Expect ~10% defoliation”. Further, in series [4] (200 ppm, two plots only, 10 DAT), the “Fruit drop (observation, not statistically analysed)” value is reported as “fruit drop appeared similar to that of vines treated with 2250 ppm MeJA”. For the same compound, in series [4], the “Berry abscission observed in plots” value is given as “berry abscission was only observed in plots treated with MeJA or coronatine”.
Consider `CC1(C)OC[C@@H]2O[C@@]3(C(=O)O)OC(C)(C)O[C@H]3[C@@H]2O1` [Dikegulac], for which, in series [3] (citrus, at certain times of the season (Pozo et al, 2004)), the Leaf loss expected entry is “(Pozo et al, 2004). Expect 15-20%”. Also, the Appearance of shoots entry in series [5] was “cupped leaves and short internodes”. For the same compound, the FDF in series [1] (20 ppm) was found to be 0.291 abc kg; in series [1] (200 ppm) it was 0.27 ab kg; in series [1] (1000 ppm), 0.288 ab kg; in series [1] (2000 ppm) it was 0.176 efg kg. Besides, the “Canopy damage (0-3; none-severe)” value in series [2] (20 ppm) is 1.00 cd; in series [2] (200 ppm) it was 1.25 bcd; in series [2] (1000 ppm), 0.5; in series [2] (2000 ppm), 1.50 bcd.
For `CC/C=C\CC1C(=O)CCC1CC(=O)OC` (stereo not drawn) [MeJA, methyl jasmonate], the “Fruit on treated trees dropped” value in series [3] (citrus trees, 2250-4500 ppm, within 10 DAT (Hartmond et al. 2000)) is reported as “about 20%”. Moreover, in series [3] (citrus trees, solutions of 2250-4500 ppm (Hartmond et al. 2000)), the “FDF less than fruit from non-treated trees” value is reported as 75-80%. Also, the “Fruit drop (appeared, not measured)” value in series [6] and in series [8] was “less than 10%” each time. Also, the “Reduction of FDF compared to non-treated vines” value in series [6] was 66%; in series [1] (lowest concentration tested, 10 DAT), “reduced FDF by half”; in series [8], 75%. The “Percent fruit drop (dry wt/dry wt)” value is 0.26 c percent in series [4] (45 ppm); 6.37 c percent in series [4] (450 ppm); 50% and 50.71 a percent in series [4] (4500 ppm). In addition, in series [4], the “Berry abscission observed in plots” value is reported as “berry abscission was only observed in plots treated with MeJA or coronatine”. Besides, in series [4] (within 2 days after treatment, ≧450 ppm (2 mM)), the Abscised berries observed entry was “abscised berries were observed”. Besides, the “FDF of berries retained after harvest versus concentration applied” value in series [7] (14 DAT, 0-4500 ppm) is on record as “FDF decreased as a linear function of the concentration of MeJA applied”. For the same compound, in series [7] (within 14 DAT, clusters sprayed with 1125, 2250 or 4500 ppm), the “Abscission of grapes from clusters” value is given as “did not abscise from any clusters”. Moreover, the FDF in series [1] (45 ppm) worked out at 0.169 fg·kg; in series [1] (450 ppm), 0.124 gh kg; in series [1] (2250 ppm) it was 0.079 hi kg; in series [1] (4500 ppm), 0.052 i kg. The “Reduction of FDF compared with cane severance” value in series [1] (any concentration ≧450 ppm, 10 DAT) is on record as “reduced FDF at least as effectively as cane severance”.
For `NC1(C(=O)O)CC1` [VBC-30069], the FDF in series [1] (50 ppm) amounted to 0.261 cd kg; in series [1] (150 ppm), 0.266 abcd kg.

Values taken from patent US20090018021A1, “Methyl jasmonate decreases fruit detachment force of grapes” (Regents of the University of California, priority 2006, published 2009).
